Data set [1] deals with SCC-25 (squamous cell carcinoma of the tongue). The experiment in a line: BrdU assay. Format: cell-based. To be noted: Homo sapiens; SCC-25, BrdU, 24 h; read-out: IC50 ± SD, antiproliferative activity. Here is the method:
(§1) Since the inhibition of human DNA topoisomerase II should result in decreased proliferation of cancer cells, compounds 1-3 were tested using BrdU assay against a panel of cancer cell lines, including MCF-7 (estrogen-dependent human breast cancer cells), MDA-MB-231 (estrogen-independent human breast cancer cells), SCC-25 (squamous cell carcinoma of the tongue), FaDu (squamous cell carcinoma of the pharynx), A549 (human lung carcinoma), AGS (human gastric adenocarcinoma), LS-180, HT-29 (colon cancer cell lines), T98G (glioblastoma cells), and A375 (melanoma cells). Human normal skin fibroblasts (CRL-2072) were also used as a reference cell line. The BrdU assay allows quantification of cell proliferation since it measures incorporation of thymidine analogue (BrdU) during DNA replication. […] However, although the antiproliferative effect caused by 3 was mostly weaker (except for A549 and A375) than observed for 1, but the former compound was also characterised by lower toxicity against human normal cells. It results in selectivity index approaching 125 and 57, when it comes to lung cancer (A549) and melanoma cells (A375), respectively.
(§2) Cytotoxicity of the synthesised compounds were examined against a panel of the cancer cell lines, MCF-7 (estrogen-dependent human breast cancer cells), MDA-MB-231 (oestrogen-independent human breast cancer cells), SCC- 25 (squamous cell carcinoma of the tongue), FaDu (squamous cell carcinoma of the pharynx), A- 549 (human lung carcinoma), AGS (human gastric adenocarcinoma), LS-180, HT-29 (colon cancer cell lines), T98G (glioblastoma cells), A375 (melanoma cells). Human embryonic kidney (HEK-293) cells and human normal skin fibroblasts (CRL-2072) were used as reference cell lines. The investigated cell lines were obtained from American Type Culture Collection (ATCC; Manassas, VA, USA). A375, MCF-7, MDA-MB-231, T98G cells were cultured in Dulbecco’s Modified Eagle’s Medium (DMEM) (Sigma Aldrich, St. Louis, MO, USA) supplemented with 10% heat inactivated foetal bovine serum (FBS), penicillin (100 U/mL), and streptomycin (100 μg/mL). SCC-25 cells were cultured in 1:1 mixture of Dulbecco’s modified Eagle’s medium and Ham’s F12 Medium (Sigma Aldrich, St. Louis, MO, USA) supplemented with 400 ng/ml hydrocortisone, 10% FBS, penicillin (100 U/mL), and streptomycin (100 μg/mL). A549 and AGS cells were maintained in F-12K Medium (Sigma Aldrich, St. Louis, MO, USA). LS-180 and FaDu cells were cultured in Eagle’s Minimum Essential Medium. HT-29 cells were maintained in McCoy’s 5 A Medium (Sigma Aldrich, St. Louis, MO, USA) supplemented with 10%FBS, penicillin (100 U/mL), and streptomycin (100 μg/mL). All the cells were maintained at 37 °C in a humidified atmosphere of 5% CO2.
(§3) The BrdU assay was performed to determine the effect of synthesised compounds on the proliferation of cancer cells. BrdU assay indicates the rate of incorporation of 5′-bromo-2′-deoxy-uridine (BrdU) during DNA biosynthesis. In brief, cells were plated in 96-well plates (NUNC, Roskilde, Denmark) at the density of 3 × 10^4 cells/mL. […] Cell proliferation was examined after 24 h and 48 h of incubation according to the manufacturer’s protocol (Cell Proliferation ELISA BrdU, Roche Diagnostics GmbH, Penzberg,)Germany).

Data set [2] deals with A549 (human lung carcinoma). The experiment in a line: BrdU assay. To be noted: for IC50: Homo sapiens, A549, BrdU, 24 h, read-out: IC50 ± SD, antiproliferative activity. Format: cell-based. Here is the method:
as §1, §2, §3

The subject of data set [3] is MCF-7 (estrogen-dependent human breast cancer cells). Description: BrdU assay. Format: cell-based. To be noted: MCF7, MCF-7, BrdU, 24 h, read-out: IC50 ± SD, antiproliferative activity. Here is the method:
as §1, §2, §3

For data set [4], the system named is Human normal skin fibroblasts (CRL-2072). Description: BrdU assay. To be noted: Skin fibroblast, 24 h, read-out: IC50 ± SD, antiproliferative activity. Format: cell-based. Here is the method: as §1, §2, §3
The test system of data set [5] is T98G (glioblastoma cells). The experiment in a line: BrdU assay. Type of data set: cell-based. To be noted: Homo sapiens, 24 h, read-out: IC50 ± SD, antiproliferative activity. The method, then:
as §1, §2, §3

In data set [6] the test system is AGS (human gastric adenocarcinoma). Description: BrdU assay. Format: cell-based. To be noted: 24 h, read-out: IC50 ± SD, antiproliferative activity. The method, then: as §1, §2, §3
The test system of data set [7] is MDA-MB-231 (estrogen-independent human breast cancer cells). Description: BrdU assay. Format: cell-based. To be noted: MDA-MB-231, BrdU, 24 h, read-out: IC50 ± SD, antiproliferative activity. The method, then: as §1, §2, §3
Data set [8] has as its system FaDu (squamous cell carcinoma of the pharynx). The experiment in a line: BrdU assay. To be noted: Homo sapiens, 24 h, read-out: IC50 ± SD, antiproliferative activity. Format: cell-based. The method, then:
as §1, §2, §3

The test system of data set [9] is HT-29 (colon cancer cell line). The experiment in a line: BrdU assay. Type of data set: cell-based. To be noted: Homo sapiens; HT-29, BrdU, 24 h; read-out: IC50 ± SD, antiproliferative activity. The method, then: as §1, §2, §3
The subject of data set [10] is LS180 (colon cancer cell line). Description: BrdU assay. Format: cell-based. To be noted: Homo sapiens, 24 h, read-out: IC50 ± SD, antiproliferative activity. Here is the method:
as §1, §2, §3

Data set [11] concerns the target T1, human DNA topoisomerase IIα (Homo sapiens, UniProt P11388).
T1 construct: purchased Inspiralis Ltd, Norwich, UK
The experiment in a line: Human topoisomerase IIα relaxation assay. Format: biochemical. To be noted: agarose gel, densitometry; read-out: IC50 ± SD, relaxation activity of human DNA topoisomerase IIα.
Experimental: As relaxation of supercoiled DNA (scDNA) is one of numerous functions of topoisomerase IIα, so the appearance/disappearance of relaxed DNA bands during agarose gel electrophoresis can be used to identify compounds that inhibit the enzyme.
Briefly, the increased concentrations of the compounds were mixed with the reaction mixture, incubated according to the protocol and, after reaction termination, the samples were analysed by electrophoresis using 1% agarose gel containing 0.5 mg/mL of ethidium bromide in Tris-Acetate-EDTA (TAE) buffer. Visualisation of the bands was performed using an enhanced chemiluminescence system (Syngene G:BOX Chemi XT4, Cambridge, UK). For the quantitative determination of topoisomerase II inhibition, images were densitometrically scanned.
The inhibition of topoisomerase II was calculate from the equation: % Inhibition=Intensity of compound−treated DNA/Intensity of vehicle−treated control DNA×100

Experimental findings from paper PMC9648375, “Identification of the first-in-class dual inhibitors of human DNA topoisomerase IIα and indoleamine-2,3-dioxygenase 1 (IDO 1) with strong anticancer properties” (Journal of Enzyme Inhibition and Medicinal Chemistry, 2022) are described below.

The structures appear in SMILES notation. Converted amounts (≈) assume the structure as drawn.

T1 sequence (P11388 whole entry): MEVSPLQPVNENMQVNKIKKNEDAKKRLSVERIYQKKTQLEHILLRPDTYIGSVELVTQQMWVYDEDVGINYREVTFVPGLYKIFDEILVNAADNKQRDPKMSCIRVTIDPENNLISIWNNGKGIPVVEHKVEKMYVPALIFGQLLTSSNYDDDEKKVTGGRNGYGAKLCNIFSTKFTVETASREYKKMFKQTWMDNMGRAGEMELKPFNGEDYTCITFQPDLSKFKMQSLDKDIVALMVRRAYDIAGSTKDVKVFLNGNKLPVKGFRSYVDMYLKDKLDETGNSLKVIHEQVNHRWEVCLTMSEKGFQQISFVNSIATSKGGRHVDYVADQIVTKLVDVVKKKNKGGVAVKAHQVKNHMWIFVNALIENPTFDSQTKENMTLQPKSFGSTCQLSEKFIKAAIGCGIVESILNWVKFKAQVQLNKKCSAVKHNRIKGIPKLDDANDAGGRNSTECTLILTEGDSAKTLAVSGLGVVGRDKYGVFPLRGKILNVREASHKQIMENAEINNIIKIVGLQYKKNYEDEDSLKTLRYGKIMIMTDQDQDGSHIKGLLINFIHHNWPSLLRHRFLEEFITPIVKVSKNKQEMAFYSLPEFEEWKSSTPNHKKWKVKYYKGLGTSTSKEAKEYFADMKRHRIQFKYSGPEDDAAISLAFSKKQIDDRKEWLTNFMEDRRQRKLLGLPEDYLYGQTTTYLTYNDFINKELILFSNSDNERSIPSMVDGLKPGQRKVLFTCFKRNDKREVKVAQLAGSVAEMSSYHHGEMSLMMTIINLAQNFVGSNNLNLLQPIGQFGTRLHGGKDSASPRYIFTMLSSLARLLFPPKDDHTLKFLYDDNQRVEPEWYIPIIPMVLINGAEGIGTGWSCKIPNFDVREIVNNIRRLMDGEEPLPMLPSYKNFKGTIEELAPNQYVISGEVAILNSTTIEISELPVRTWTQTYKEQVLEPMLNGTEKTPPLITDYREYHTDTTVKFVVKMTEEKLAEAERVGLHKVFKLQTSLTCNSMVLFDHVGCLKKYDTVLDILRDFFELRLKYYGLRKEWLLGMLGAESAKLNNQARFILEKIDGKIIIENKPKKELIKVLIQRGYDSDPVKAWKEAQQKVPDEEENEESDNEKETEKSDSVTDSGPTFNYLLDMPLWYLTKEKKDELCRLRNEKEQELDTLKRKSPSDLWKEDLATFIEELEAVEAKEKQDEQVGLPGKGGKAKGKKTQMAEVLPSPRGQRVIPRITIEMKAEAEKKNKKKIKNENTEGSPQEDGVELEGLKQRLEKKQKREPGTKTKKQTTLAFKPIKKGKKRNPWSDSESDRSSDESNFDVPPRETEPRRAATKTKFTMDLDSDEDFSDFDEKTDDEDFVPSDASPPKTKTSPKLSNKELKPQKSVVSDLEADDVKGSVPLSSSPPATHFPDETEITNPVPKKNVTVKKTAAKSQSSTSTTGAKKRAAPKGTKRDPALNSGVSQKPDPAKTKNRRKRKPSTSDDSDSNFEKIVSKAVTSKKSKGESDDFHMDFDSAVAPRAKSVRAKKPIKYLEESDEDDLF

`CC(C)c1cccc(C(C)C)c1NC(=S)NNC(=O)Cc1cccc2ccccc12` [Compound 1, 4-(2,6-Diisopropylphenyl)-1-[(naphth-1-yl)acetyl]thiosemicarbazide] displayed a melting point of 140 to 142 °C. In addition, the IC50 in data set [1] stood at 1.1 ± 0.02 µg/mL (≈ 2.62 µM). Further, the IC50 in data set [2] was determined as 0.23 ± 0.01 µg/mL (≈ 0.548 µM). Moreover, in [3], the IC50 is 1.19 ± 0.04 µg/mL (≈ 2.84 µM). For the same molecule, the IC50 in data set [4] is 22.4 ± 0.94 µg/mL (≈ 53.3 µM). In data set [5], the IC50 was 0.72 ± 0.02 µg/mL (≈ 1.72 µM). The IC50 in [6] amounted to 0.51 ± 0.02 µg/mL (≈ 1.22 µM). The IC50 in data set [7] came to 26.3 ± 0.99 µg/mL (≈ 62.7 µM). Also, in data set [8], the IC50 came out at 1.04 ± 0.04 µg/mL (≈ 2.48 µM). Besides, the 50% inhibitory concentration (IC50) in data set [9] is 0.44 ± 0.03 µg/mL (≈ 1.05 µM). In [10], the IC50 is 4.68 ± 0.17 µg/mL (≈ 11.2 µM). Besides, in [11], the half-maximal inhibitory concentration (IC50) came to 71 ± 4.81 µM.
For the molecule `COc1cc([C@@H]2c3cc4c(cc3[C@@H](O[C@@H]3O[C@@H]5CO[C@@H](C)O[C@H]5[C@H](O)[C@H]3O)[C@H]3COC(=O)[C@H]23)OCO4)cc(OC)c1O` [Etoposide, etoposide, reference compound], the IC50 in data set [1] worked out at 21.2 ± 0.74 µg/mL (≈ 36 µM); in [2], 2.6 ± 0.11 µg/mL (≈ 4.42 µM); in data set [3], 54.9 ± 1.82 µg/mL (≈ 93.3 µM); in [4] it was 55.7 ± 3.01 µg/mL (≈ 94.6 µM); in data set [5], 29.5 ± 0.93 µg/mL (≈ 50.1 µM); in [6] it was 46 ± 2.61 µg/mL (≈ 78.1 µM). For the same molecule, the IC50 in data set [7] is > 100 µg/mL; in data set [8], 12.8 ± 0.27 µg/mL (≈ 21.8 µM); in data set [9], 19.9 ± 0.25 µg/mL (≈ 33.9 µM); in data set [10] it was > 100 µg/mL.
In the case of `O=C(NNC(=S)Nc1ccc(N=Nc2ccccc2)cc1)c1ccccc1[N+](=O)[O-]` [Compound 3, 4-(4-Phenylazophenyl)-1-(2-nitrobenzoyl)thiosemicarbazide], the melting point fell in the range of 168 to 170 °C. Also, the IC50 in [1] was 4.89 ± 0.22 µg/mL (≈ 11.6 µM). The “selectivity index, A549 vs. human normal skin fibroblasts” value in data set [2] (BrdU assay, lung cancer (A549)) is reported as ~125. For the same molecule, in data set [2], the IC50 was determined as 0.25 ± 0.01 µg/mL (≈ 0.595 µM). Besides, in data set [3], the IC50 came to 32.5 ± 1.98 µg/mL (≈ 77.4 µM). Also, in data set [4], the 50% inhibitory concentration (IC50) was 32.1 ± 1.75 µg/mL (≈ 76.4 µM). In [5], the IC50 is 6.28 ± 0.37 µg/mL (≈ 14.9 µM). In data set [6], the IC50 was found to be 43.9 ± 1.94 µg/mL (≈ 104 µM). In addition, the IC50 in data set [7] was > 100 µg/mL. The IC50 in data set [8] came out at 9.04 ± 0.39 µg/mL (≈ 21.5 µM). For the same molecule, in data set [9], the IC50 was 13.1 ± 0.81 µg/mL (≈ 31.3 µM). For the same molecule, the IC50 in data set [10] came out at 10.6 ± 0.24 µg/mL (≈ 25.1 µM). The IC50 in [11] was 76.8 ± 4.85 µM.
As for `O=C(Cc1cccc2ccccc12)NNC(=S)Nc1ccc(N=Nc2ccccc2)cc1` [Compound 2, 4-(4-Phenylazophenyl)-1-[(naphth-1-yl)acetyl]thiosemicarbazide], the melting point is 178 to 180 °C. For the same molecule, the IC50 in data set [1] stood at 1.06 ± 0.04 µg/mL (≈ 2.41 µM). Moreover, in data set [2], the IC50 came to 0.83 ± 0.03 µg/mL (≈ 1.89 µM). The IC50 in [3] came out at 33.2 ± 1.05 µg/mL (≈ 75.4 µM). In [4], the IC50 turned out to be 24.2 ± 1.4 µg/mL (≈ 55 µM). Further, the 50% inhibitory concentration (IC50) in [5] turned out to be 6.19 ± 1.83 µg/mL (≈ 14.1 µM). Besides, the IC50 in data set [6] came out at 62.3 ± 3.04 µg/mL (≈ 142 µM). For the same molecule, the IC50 in data set [7] is > 100 µg/mL. For the same molecule, the IC50 in data set [8] amounted to 7.11 ± 0.34 µg/mL (≈ 16.2 µM). For the same molecule, in [9], the IC50 amounted to 9.47 ± 0.51 µg/mL (≈ 21.5 µM). In addition, the IC50 in [10] came to 10.4 ± 0.77 µg/mL (≈ 23.6 µM). Moreover, in data set [11], the IC50 was found to be 43.1 ± 2.27 µM.
